Measured values reported in article PMC9457659, “Exploring The Relative Astringency of Tea Catechins and Distinct Astringent Sensation of Catechins and Flavonol Glycosides via an In Vitro Assay Composed of Artificial Oil Bodies” (Molecules, 2022).

Legend:
[1] = target: T1, caleosin–histatin 3 fusion protein (Homo sapiens, UniProt P15516); assay: flotation of aggregated artificial oil bodies (emulsion layer thickness), light microscopy; assay type: binding; conditions: equal volumes oil bodies and 2 mM catechin; 100 mM potassium phosphate, 50 mM KCl, pH 7.0; normalised to ECG; indirect, no caleosin-only control
T1 construct: gene HTN3; sesame caleosin lacking residues 101-115 fused with histatin 3; synthetic histatin DNA; E. coli BL21(DE3), insoluble pellet; about 29 kDa; with Caleosin (Peroxygenase)
T1 sequence (P15516 20-51): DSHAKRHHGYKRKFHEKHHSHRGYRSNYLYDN
T1 sequence (Q9SQ57 with tags, fused parts or gaps DEL101-115 partner): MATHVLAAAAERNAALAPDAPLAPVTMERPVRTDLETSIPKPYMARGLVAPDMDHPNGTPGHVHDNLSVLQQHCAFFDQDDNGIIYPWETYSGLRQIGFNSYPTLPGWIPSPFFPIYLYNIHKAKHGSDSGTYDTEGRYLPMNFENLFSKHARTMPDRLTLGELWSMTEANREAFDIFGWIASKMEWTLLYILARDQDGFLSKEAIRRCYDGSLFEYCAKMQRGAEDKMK

[2] = target: T1, caleosin–histatin 3 fusion protein; assay: atomic force and scanning electron microscopy of artificial oil bodies; assay type: binding; conditions: 5 mM rutin; oil bodies in distilled water, dried on silicon wafer; oil bodies alone set as 100%; indirect, no caleosin-only control

Row | SMILES | relative astringency (%) [1] | relative surface roughness (%) [2]
1 | Oc1cc(O)c2c(c1)O[C@H](c1ccc(O)c(O)c1)[C@@H](O)C2 [C, (+)-catechin] | aggregation of artificial oil bodies interacting with each catechin was examined | 
2 | O=C(O[C@@H]1Cc2c(O)cc(O)cc2O[C@H]1c1ccc(O)c(O)c1)c1cc(O)c(O)c(O)c1 [CG, (−)-catechin gallate] | aggregation of artificial oil bodies interacting with each catechin was examined | 
3 | Oc1cc(O)c2c(c1)O[C@H](c1ccc(O)c(O)c1)[C@H](O)C2 [EC, (−)-epicatechin] | aggregation of artificial oil bodies interacting with each catechin was examined | 
4 | Oc1cc(O)c2c(c1)O[C@H](c1cc(O)c(O)c(O)c1)[C@H](O)C2 [EGC, (−)-epigallocatechin] | aggregation of artificial oil bodies interacting with each catechin was examined | 
5 | O=C(O[C@@H]1Cc2c(O)cc(O)cc2O[C@@H]1c1cc(O)c(O)c(O)c1)c1cc(O)c(O)c(O)c1 [EGCG, (−)-epigallocatechin gallate] | aggregation of artificial oil bodies interacting with each catechin was examined | 
6 | Oc1cc(O)c2c(c1)O[C@@H](c1cc(O)c(O)c(O)c1)[C@H](O)C2 [GC, (−)-gallocatechin] | aggregation of artificial oil bodies interacting with each catechin was examined | 
7 | O=C(O[C@@H]1Cc2c(O)cc(O)cc2O[C@H]1c1cc(O)c(O)c(O)c1)c1cc(O)c(O)c(O)c1 [GCG, (−)-gallocatechin gallate] | aggregation of artificial oil bodies interacting with each catechin was examined | 
8 | C[C@@H]1O[C@@H](OC[C@H]2O[C@@H](Oc3c(-c4ccc(O)c(O)c4)oc4cc(O)cc(O)c4c3=O)[C@H](O)[C@@H](O)[C@@H]2O)[C@H](O)[C@H](O)[C@H]1O [rutin] |  | a smooth surface was observed on artificial oil bodies complexed with rutin
